The source of these data is patent publication US20100063085A1, “METHOD OF TREATING LEARNING IMPAIRMENT IN DOWN'S SYNDROME SUBJECTS” (University Court of The University of Dundee, priority 2008, published 2010).

Holding throughout (assay type): biochemical
One test concerns the target PKA (Homo sapiens, UniProt P17612). Put plainly: PKA 33P kinase assay. To be noted: read-out: PKA activity as percentage of control without inhibitor; for remaining activity at 1 µM: inhibitor 1 μM; for remaining activity at 10 µM: inhibitor 10 μM. The method, then:
(§1) All assays (25.5 μl) were carried out at room temperature (21° C.) and were linear with respect to time and enzyme concentrations under the conditions used. Assays were performed for 30 minutes except assays for LCK and PKB which were performed for 15 minutes using Multidrop Micro reagent dispensers (Thermo Electron Corporation, Waltham, Mass. 02454, USA) in a 96-well format. The concentration of […] [γ-^33P] ATP (800 cpm/pmol) in the assays was one of three concentrations (5, 20 or 50 μM) in order to be at or below Km for ATP for the enzyme. Assays were initiated with MgATP and stopped by addition of 5 μl of 0.5M orthophosphoric acid. Assays were then harvested onto P81 filterplates using a unifilter harvester (PerkinElmer, Boston, Mass. 02118, USA), with a wash buffer of 50 mM orthophosphoric acid. Filterplates were then air dried overnight. 10 μl of Microscint O was added per well prior to counting for radioactivity.
(§2) MKK1, JNK/SAPK1c, SAPK2a/p38, SAPK2b/p38β2, SAPK3/p38γ, SAPK4/p38δ, MAPK2/ERK2, MAPKAP-K1β, MAPKAP-K2, MSK1, PRAK, PKA, PKCα, PDK1, SGK, p70S6K, GSK3β, ROCK-II, PRK2, AMPK, CHK1, CHK2, CK2, PHK, LCK, were assayed according to Davies et al., (Davies, S. P., Reddy, H., Caivano, M. and Cohen, P. Biochem. J. 351, 95-105, 2000.
(§3) CSK and CDK2/cyclinA, were assayed according to Bain et al. (Bain J, McLauchlan H, Elliott M, Cohen P. Biochem J. 371, 199-204, 2003., except that ATP concentrations were either 5, 20 or 50 micromolar so that they were at or below the Km for ATP. The ATP concentrations used were as follows, 5 μM for assays of MKK1, SAPK3, SAPK4, GSK3β, PRK2 CK2 20 μm for assays of JNK, SAPK2β, MAPKAP-K2, MSK1, PRAK, PKA, […], PDK1, SGK, p70S6K, ROCK-II, CHK1, CHK2, CSK, CDK2, and 50 μM for assays of SAPK2a, MAPK2/ERK2, AMPK, LCK, PHK and MAPKAP-K1β.

The target of the next test is SAPK2b/p38β2 (Homo sapiens, UniProt Q15759). Put plainly: SAPK2b/p38β2 33P kinase assay. The following applies: read-out: SAPK2b/p38β2 activity as percentage of control without inhibitor; for remaining activity at 1 µM: inhibitor 1 μM. As for the experimental part: as §1, with “Assays” for “All assays (25.5 μl) were carried out at room temperature (21° C.) and were linear with respect to time and enzyme concentrations under the conditions used. Assays”
Chain of SAPK2b/p38β2 (Q15759 whole entry): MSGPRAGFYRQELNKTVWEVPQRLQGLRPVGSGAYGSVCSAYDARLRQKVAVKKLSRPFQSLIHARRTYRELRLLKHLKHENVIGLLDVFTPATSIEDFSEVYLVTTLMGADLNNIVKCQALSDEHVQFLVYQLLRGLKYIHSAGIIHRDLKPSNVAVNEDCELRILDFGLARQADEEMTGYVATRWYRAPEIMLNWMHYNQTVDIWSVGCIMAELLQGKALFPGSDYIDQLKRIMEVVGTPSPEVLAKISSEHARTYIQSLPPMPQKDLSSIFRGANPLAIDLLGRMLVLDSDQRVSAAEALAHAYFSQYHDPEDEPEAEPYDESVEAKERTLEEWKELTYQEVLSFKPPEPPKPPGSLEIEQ
as §2, §3

A further test has as its target CSK (Homo sapiens, UniProt P41240). Put plainly: CSK 33P kinase assay. To be noted: read-out: CSK activity as percentage of control without inhibitor. The method, then: as §1, §3
The target of the next test is T1, SGK (Homo sapiens, UniProt O00141).
T1 sequence (O00141 1-431): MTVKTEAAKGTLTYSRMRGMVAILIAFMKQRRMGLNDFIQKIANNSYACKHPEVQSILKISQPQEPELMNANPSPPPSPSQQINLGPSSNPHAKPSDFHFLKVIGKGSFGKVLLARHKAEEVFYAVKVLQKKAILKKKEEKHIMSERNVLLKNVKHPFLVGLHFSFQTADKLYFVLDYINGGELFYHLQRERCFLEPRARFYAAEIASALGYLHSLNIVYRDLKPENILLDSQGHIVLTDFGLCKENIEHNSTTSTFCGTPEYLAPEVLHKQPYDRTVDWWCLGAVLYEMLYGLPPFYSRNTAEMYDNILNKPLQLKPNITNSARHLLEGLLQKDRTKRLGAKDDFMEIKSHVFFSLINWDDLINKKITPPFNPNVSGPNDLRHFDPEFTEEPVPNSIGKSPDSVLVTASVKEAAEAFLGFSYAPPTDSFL
The experiment in a line: SGK 33P kinase assay. The following applies: read-out: SGK activity as percentage of control without inhibitor. The method, then: as §1, §2, §3

The target in another test is MSK1 (Homo sapiens, UniProt O75582). Put plainly: MSK1 33P kinase assay. The following applies: read-out: MSK1 activity as percentage of control without inhibitor. The method, then: as §1, §2, §3
Chain of MSK1 (O75582 whole entry, species assumed): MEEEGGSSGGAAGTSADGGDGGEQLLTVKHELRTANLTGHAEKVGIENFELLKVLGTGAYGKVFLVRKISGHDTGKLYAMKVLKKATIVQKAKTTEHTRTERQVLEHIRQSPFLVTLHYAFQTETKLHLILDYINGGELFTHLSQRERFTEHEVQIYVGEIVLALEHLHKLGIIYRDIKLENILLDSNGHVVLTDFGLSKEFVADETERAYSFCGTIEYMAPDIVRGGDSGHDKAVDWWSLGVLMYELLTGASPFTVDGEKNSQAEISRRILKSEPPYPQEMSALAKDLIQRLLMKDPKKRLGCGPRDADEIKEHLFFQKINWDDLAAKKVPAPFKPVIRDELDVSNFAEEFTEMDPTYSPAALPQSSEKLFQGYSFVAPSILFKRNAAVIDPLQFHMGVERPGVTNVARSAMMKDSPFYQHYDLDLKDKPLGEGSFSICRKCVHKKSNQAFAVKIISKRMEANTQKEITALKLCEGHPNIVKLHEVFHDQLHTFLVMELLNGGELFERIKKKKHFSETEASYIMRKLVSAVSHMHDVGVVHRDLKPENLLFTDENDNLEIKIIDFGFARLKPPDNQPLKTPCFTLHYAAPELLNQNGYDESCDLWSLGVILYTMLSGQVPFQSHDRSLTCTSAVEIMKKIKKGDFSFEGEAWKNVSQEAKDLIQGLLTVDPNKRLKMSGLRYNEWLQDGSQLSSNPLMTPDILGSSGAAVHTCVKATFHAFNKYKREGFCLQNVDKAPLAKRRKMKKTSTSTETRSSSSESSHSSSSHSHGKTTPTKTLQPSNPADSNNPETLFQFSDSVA
A further test has as its target Lck (Homo sapiens, UniProt P06239). Put plainly: Lck 33P kinase assay. To be noted: read-out: Lck activity as percentage of control without inhibitor; for remaining activity at 1 µM: inhibitor 1 μM. The method, then: as §1, with “Assays” for “All assays (25.5 μl) were carried out at room temperature (21° C.) and were linear with respect to time and enzyme concentrations under the conditions used. Assays”
as §2, §3

In another test the target is T2, SAPK3/p38g (Homo sapiens, UniProt P53778).
T2 sequence (P53778 1-367): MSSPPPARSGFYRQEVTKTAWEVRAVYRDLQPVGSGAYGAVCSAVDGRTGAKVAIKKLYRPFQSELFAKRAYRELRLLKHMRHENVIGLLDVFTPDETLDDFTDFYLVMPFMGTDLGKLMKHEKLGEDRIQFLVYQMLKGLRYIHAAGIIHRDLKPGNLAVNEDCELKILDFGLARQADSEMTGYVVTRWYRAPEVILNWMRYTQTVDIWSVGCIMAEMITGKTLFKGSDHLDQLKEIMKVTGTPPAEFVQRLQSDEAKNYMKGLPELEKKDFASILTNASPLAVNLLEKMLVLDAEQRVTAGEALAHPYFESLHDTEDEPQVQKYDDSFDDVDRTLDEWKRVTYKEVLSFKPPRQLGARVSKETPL
The experiment in a line: SAPK3/p38g 33P kinase assay. To be noted: read-out: SAPK3/p38g activity as percentage of control without inhibitor. As for the experimental part:
as §1, §2, §3

Where two headings read alike, the source gives them in different places.

Chain of Lck (P06239 whole entry, species assumed): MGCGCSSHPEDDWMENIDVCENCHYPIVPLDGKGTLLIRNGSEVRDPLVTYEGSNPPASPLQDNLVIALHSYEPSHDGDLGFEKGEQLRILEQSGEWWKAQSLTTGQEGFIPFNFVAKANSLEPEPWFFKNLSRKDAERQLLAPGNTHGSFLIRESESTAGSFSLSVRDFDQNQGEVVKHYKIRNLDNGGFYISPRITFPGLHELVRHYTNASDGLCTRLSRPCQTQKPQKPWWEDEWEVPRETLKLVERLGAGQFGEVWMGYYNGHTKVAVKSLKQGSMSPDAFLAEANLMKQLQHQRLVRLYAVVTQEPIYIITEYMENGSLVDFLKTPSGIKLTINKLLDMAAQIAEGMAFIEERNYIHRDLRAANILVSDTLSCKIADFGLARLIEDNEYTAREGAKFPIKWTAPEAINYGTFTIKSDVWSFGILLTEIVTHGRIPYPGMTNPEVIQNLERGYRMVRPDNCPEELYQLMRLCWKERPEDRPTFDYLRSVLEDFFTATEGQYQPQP
Chain of CSK (P41240 whole entry, species assumed): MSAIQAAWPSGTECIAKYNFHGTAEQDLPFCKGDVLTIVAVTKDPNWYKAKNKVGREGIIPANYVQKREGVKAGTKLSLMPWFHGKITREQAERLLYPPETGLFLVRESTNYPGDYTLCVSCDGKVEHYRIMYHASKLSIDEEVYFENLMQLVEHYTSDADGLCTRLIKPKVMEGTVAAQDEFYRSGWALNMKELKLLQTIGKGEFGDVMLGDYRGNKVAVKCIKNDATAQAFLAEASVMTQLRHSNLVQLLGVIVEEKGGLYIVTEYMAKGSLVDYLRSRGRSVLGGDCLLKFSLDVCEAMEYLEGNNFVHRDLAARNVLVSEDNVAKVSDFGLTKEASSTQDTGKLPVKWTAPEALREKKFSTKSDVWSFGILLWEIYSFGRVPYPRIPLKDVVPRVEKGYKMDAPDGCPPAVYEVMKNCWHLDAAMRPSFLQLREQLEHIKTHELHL

On to `COc1ccc2c3c([nH]c2c1)C(C)=NCC3` [Harmaline], for which the remaining activity at 1 µM on PKA amounted to 70%; on SAPK2b/p38β2, 91%; on CSK, 64%; on SGK (inhibitor 1 μM) it was 14%; on MSK1 (inhibitor 1 μM), 98%; on Lck, 77%. For the same compound, the remaining activity at 1 µM on SAPK3/p38g (inhibitor 1 μM) is 98%. The remaining activity at 10 µM stood at 86% at PKA; 93% on SAPK2b/p38β2 (inhibitor 10 μM); 90% on CSK; 84% at SGK (inhibitor 10 μM); 111% on MSK1 (inhibitor 10 μM); 87% on Lck (inhibitor 10 μM). The remaining activity at 10 µM at SAPK3/p38g (inhibitor 10 μM) stood at 94%.
In the case of `CC1=NCCc2c1[nH]c1cc(O)ccc21` [Harmalol], the remaining activity at 1 µM amounted to 90% on PKA; 88% on SAPK2b/p38β2; 110% on CSK (inhibitor 1 μM); 62% on SGK (inhibitor 1 μM); 84% at MSK1 (inhibitor 1 μM); 85% at Lck. The remaining activity at 1 µM on SAPK3/p38g (inhibitor 1 μM) was determined as 98%. For the same compound, the remaining activity at 10 µM at PKA turned out to be 75%; at SAPK2b/p38β2 (inhibitor 10 μM) it was 79%; on CSK (inhibitor 10 μM), 92%; on SGK (inhibitor 10 μM), 45%; on MSK1 (inhibitor 10 μM) it was 59%; on Lck (inhibitor 10 μM), 68%. Also, the remaining activity at 10 µM on SAPK3/p38g (inhibitor 10 μM) stood at 92%.
Take `COc1ccc2c(c1)[nH]c1c(C)nccc12` [Harmine]: the remaining activity at 1 µM on PKA turned out to be 82%; at CSK, 92%; at SGK, 66%; on MSK1 it was 90%; at SAPK3/p38g, 82%. In addition, the remaining activity at 10 µM on PKA was 92%; at SAPK2b/p38β2 it was 87%; at CSK, 101%; at SGK it was 62%; on MSK1, 88%; at Lck, 91%. Further, on SAPK3/p38g, the remaining activity at 10 µM came to 72%.
